Assay results from patent publication US20240382596A1, “COMPOSITION OF VANCOMYCIN AQUEOUS SOLUTION” (HAINAN POLY PHARM. CO., LTD., priority 2021, published 2024).

Assays:
[1] = Stability of vancomycin eye drops, HPLC relevant substances; type: physicochemical; settings: eye drops study, 0 day
Method: (§1) The embodiments are intended to facilitate understanding of the invention and should not be deemed as a limitation to the invention. • HPLC analysis conditions of the following embodiments were: • Chromatographic column: Welch Ultimate XB-C18 (250×4.6 mm, 5 μm) • Detection wavelength: 280 nm; • Column temperature: 30° C.; • Flow rate: 2.0 mL/min; • Injection volume: 20 μL; • Mobile phase: • Solution A: 4.0 mL of triethylamine was precisely measured, and water was added to bring the total volume to 2000 mL, and the pH of the solution was further adjusted to 3.20 with phosphoric acid; • Solution B: Acetonitrile-tetrahydrofuran-solution A=55−10−935, the pH was adjusted to 3.20 with phosphoric acid; • Solution C: acetonitrile-tetrahydrofuran-solution A=290−10−700, the pH was adjusted to 3.20 by phosphoric acid; • Elution gradient: […]
After being placed under accelerated conditions of 25° C./60% RH for 30 days, relevant substances were sampled and detected. The result is shown in Table 7, the percentage of impurities peak area is calculated by peak area normalization method.

[2] = Stability of vancomycin injection, HPLC relevant substances; type: physicochemical; settings: injection study, 0 day
Method: as §1
After being placed under accelerated conditions of 25° C./60% RH for 30 days, relevant substances were sampled and detected.

[3] = PK test of vancomycin injection; type: in vivo; settings: SD rats following a single intrathecal dose; range over G1-G3
Method: Nine male SD rats were divided into three groups. […] Plasma samples were collected at 0.083, 0.167, 0.25, 0.5, 1, 2, 4, 6, 8, 12, and 24 h post-dosing in each group. The concentration of vancomycin in plasma samples was detected using an established LC-MS/MS method.

## Vancomycin hydrochloride
[1]
  CDP-1: 0.32%
  RS2: 0.53%
  Vancomycin HCl: 95.81%
[2]
  CDP-1: 0.32%
  RS2: 0.55%
  Vancomycin HCl: 95.19%
[3]
  elimination half-life (T½): 40.7 to 50.5 min
